This note sets out measurements from the METLIN SMRT retention time set (Domingo-Almenara et al. 2019).

This series is described as follows: gradient 5% acetonitrile 3 min, to 50% in 2 min, to 85% in 15 min, held 3 min, 100 µL/min. The note with it: column: Zorbax Extend-C18 2.1 x 50 mm; eluents: water / acetonitrile, 0.1% formic acid. The method, boiled down:
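The mobile phases were water and acetonitrile, each with 0.1% formic acid, pumped at 100 μL/min through a Zorbax Extend-C18 column (2.1 × 50 mm, 1.8 μm). Pure standards were injected as mixtures of ~100 molecules and detected by a quadrupole time-of-flight mass spectrometer in positive and negative ionization mode. Retention time came from computationally picked adduct peaks, each inspected by hand.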
Take `Cc1cc(C)c(OCC(=O)N(Cc2ccc(C)o2)C2CCS(=O)(=O)C2)c(C)c1` (stereo not given): the RP-LC retention time was 1030 s.

As to `CCCn1cnc2ccc(-c3noc(CNS(=O)(=O)c4ccccc4)n3)cc21`, the RP-LC retention time worked out at 682 s.

Consider `COc1ccc(-c2cn3c(CC(=O)Nc4ccccc4)csc3n2)cc1`, for which the RP-LC retention time was found to be 760 s.

`CC(C)c1ccc(Nc2c(-c3ccc(O)cc3)nc3ncccn23)cc1`: the RP-LC retention time was 713 s.

Take `CCNc1cc(N2CCC(CCC(=O)NC3CCN(C(=O)OCC)CC3)CC2)ncn1`: the RP-LC retention time came to 620 s.

In the case of `COC(=O)c1c(NCCN2CCCc3ccccc32)c2cc(F)ccc2[nH]c1=O`, the RP-LC retention time worked out at 952 s.

With `O=C(Nc1cccs1)Nc1ccccc1NC(=O)c1ccco1`, the RP-LC retention time was found to be 716 s.

`COC(=O)c1cccc(NC(=O)NC2CCCN2S(=O)(=O)c2ccc(Cl)cc2)c1` (stereo not given) yielded an RP-LC retention time of 821 s.

In the case of `O=C1NCCc2c1[nH]c1ccccc21`, the RP-LC retention time turned out to be 750 s.

For the compound `COC(=O)c1cc(C2CC2)nc2c1c(=O)n(Cc1ccccc1)c(=O)n2C`, the RP-LC retention time turned out to be 1030 s.

The compound `Cc1cc(C)c(NC(=O)CN2C(=O)CC(c3cccs3)=Nc3ccccc32)c(C)c1` gave an RP-LC retention time of 954 s.

Turning to `COCCN1C(=O)c2ccccc2C(C(=O)NCCc2c[nH]c3ccccc23)C12CCCC2` (stereo not given), the RP-LC retention time is 845 s.

In turn, `CCOC(=O)c1c(C)[nH]c(C(=O)N2CCC(CC(=O)N3CCN(c4ccccc4)CC3)CC2)c1C` yielded an RP-LC retention time of 836 s.

`O=C(O)CC1CCCN(c2cnn(CC3CC3)c(=O)c2)C1` (stereo not given): the RP-LC retention time came out at 657 s.

As to `COCc1cc(=O)n(CC(=O)Nc2ccc(C)c(C)c2)c(N)n1`, the RP-LC retention time was determined as 647 s.

In turn, `CCc1cccc(C)c1Nc1c(-c2ccc(F)cc2)nc2ncccn12` yielded an RP-LC retention time of 886 s.

As to `COc1cccc(-c2ccnc3nc(-c4ccccc4OC)nn23)c1`, the RP-LC retention time was determined as 860 s.

Take `O=C(C1CCCN(c2ncnc3c2nc2n3CCCCC2)C1)N(Cc1ccco1)C1CCCCC1` (stereo not given): the RP-LC retention time came out at 1020 s.

For `CCn1c(CCNC(=O)Cc2ccc(Cl)cc2)nc2cccnc21`, the RP-LC retention time came out at 639 s.

Take `Cn1c(C2CCN(S(=O)(=O)c3ccccc3Cl)CC2)cc(=O)n2nccc12`: the RP-LC retention time came out at 708 s.

Turning to `CCCN1CCC[C@@H](c2cccc(O)c2)C1`, the RP-LC retention time was found to be 596 s.

Regarding `CCC1CN(C(=O)Nc2cccc(OC)c2)c2ccccc2O1` (stereo not given), the RP-LC retention time was 945 s.

For `Cc1ccc(C)c(NS(=O)(=O)c2cc(-c3nc(C(C)(C)C)cs3)cs2)c1`, the RP-LC retention time amounted to 1310 s.

`Cc1nnc(-c2c(S(=O)(=O)NC3CCN(Cc4ccccc4)CC3)c(C)n(C)c2C)o1` yielded an RP-LC retention time of 602 s.

Compound `CCc1ccc(N2CC(c3nc(-c4ccc(OC)c(OC)c4)no3)CC2=O)cc1` (stereo not given) came in with an RP-LC retention time of 989 s.

Turning to `CCN(C)C(=O)C1CN(C(=O)c2cccs2)CC1c1cccc(C(F)(F)F)c1` (stereo not given), the RP-LC retention time came to 823 s.

Consider `Cc1ccc(NS(=O)(=O)c2cc3c4c(c2)CCC(=O)N4CCC3)c(C)c1`, for which the RP-LC retention time turned out to be 840 s.

In the case of `Cc1cccc(-c2ncccc2CNS(=O)(=O)c2ccccc2)c1`, the RP-LC retention time turned out to be 677 s.

`Cc1nc(-c2cn(C)c3ncccc23)sc1C(=O)NCc1ccccc1C(F)(F)F`: the RP-LC retention time stood at 998 s.

`Cc1oc2ccn(Cc3ccc(F)cc3)c(=O)c2c1C(=O)N1CCCCC1` had an RP-LC retention time of 834 s.

On to `O=C(Cc1cccc(Cl)c1)N1CCN(c2nc(CN3CCOCC3)cs2)CC1`, for which the RP-LC retention time came to 644 s.

As for `Cc1ccc(C)c(S(=O)(=O)N2CCC(c3noc(-c4ccccc4C)n3)CC2)c1`, the RP-LC retention time amounted to 1270 s.

`Cc1ccc(NC(=O)Nc2nccn(-c3ccc(F)cc3)c2=O)cc1C` showed an RP-LC retention time of 1020 s.

On to `COc1ccccc1C1=NN(C(C)=O)C(C)(c2cccc(OC(C)=O)c2)O1` (stereo not given), for which the RP-LC retention time turned out to be 852 s.

`Cc1nc2ccn(Cc3cccnc3)c(=O)c2cc1C(=O)NCCCc1ccco1`: the RP-LC retention time turned out to be 625 s.

On to `CC(C)CC(=O)N1CCc2cc(CNS(=O)(=O)Cc3ccccc3)ccc21`, for which the RP-LC retention time was found to be 610 s.

Regarding `COc1ccc(C(=O)N2CCC3(CC2)NC(=O)c2ccccc2N3C)cc1OC`, the RP-LC retention time turned out to be 676 s.

The compound `O=C(Nc1cccc(C(F)(F)F)c1)c1cnc(-c2ccccc2)nc1-c1ccncc1` showed an RP-LC retention time of 859 s.

As for `COc1ccc(CC(=O)NCCc2cn(C)c3ncccc23)cc1Cl`, the RP-LC retention time is 679 s.

With `CCCn1ccc2sc(C)c(C(=O)N3CCN(c4ccccn4)CC3)c2c1=O`, the RP-LC retention time is 593 s.

`Cc1ccc(NC(=O)N2CCc3nc(-c4ccccc4)ncc3C2)c(C)c1` had an RP-LC retention time of 952 s.

`O=C(C1=NN(CCc2ccccc2)c2cc(Cl)ccc2S1(=O)=O)N1CCOCC1` gave an RP-LC retention time of 906 s.

`COc1cccc(CNC(=O)N2CCCC2c2cc(C)no2)c1` (stereo not given): the RP-LC retention time was 706 s.

`COc1ccc(NC(=O)N2CCC(c3nc(C(=O)N4CCCCC4)c(C)o3)CC2)cc1F` came in with an RP-LC retention time of 784 s.

In the case of `O=C(O)C1CC(=O)N(c2ccc3c(c2)OCO3)C1` (stereo not given), the RP-LC retention time came to 619 s.

For `COc1cc(CCC(=O)N2CCC3(CC2)NCc2ccccc2-n2ccnc23)on1`, the RP-LC retention time was determined as 584 s.

For `COc1ccc(-c2nnc(-c3cccc(S(=O)(=O)N4CCCCCC4)c3)o2)cc1`, the RP-LC retention time is 1130 s.

`CCOC(=O)c1c(C)[nH]c(C(=O)N2CCC(C(C)C(=O)N3CCCC3)CC2)c1C` (stereo not given) had an RP-LC retention time of 715 s.

Regarding `Cc1cnc(CC2CCN(S(=O)(=O)c3ccccc3)C2)n1C(C)C` (stereo not given), the RP-LC retention time was 650 s.

The compound `Cc1ccc(-c2noc(-c3cccc(S(=O)(=O)NCCN4CCC(C)CC4)c3)n2)cc1` registered an RP-LC retention time of 831 s.

In turn, `Cc1ccc(Cn2cccc(S(=O)(=O)N3CCCC3)c2=O)cc1` registered an RP-LC retention time of 859 s.

Regarding `CCCc1c(C(=O)O)nnn1-c1cc(C)ccc1F`, the RP-LC retention time worked out at 787 s.

`COCCn1cc2c3c(cccc31)CN(C(=O)c1cccc(Cl)c1)CC2` returned an RP-LC retention time of 960 s.

Consider `NC(=O)c1cc(Br)cc(C2CCCCC2)c1O`, for which the RP-LC retention time was 1220 s.

For `COc1ccc(-c2noc(-c3ccc(N4CCN(c5cccc(OC)c5)CC4)nc3)n2)cc1`, the RP-LC retention time amounted to 1340 s.

Regarding `COc1ccc(CN2C[C@@H]3C(=O)N(Cc4ccc5c(c4)OCO5)C(=O)[C@@H]3C2)cc1OC`, the RP-LC retention time amounted to 659 s.

`CN(CC1CCOCC1)C(=O)Nc1ccccc1C(F)(F)F`: the RP-LC retention time was 738 s.

Turning to `CC(C)c1nnc(C2CN(C)CC23CCN(Cc2cc(Cl)ccc2F)CC3)o1` (stereo not given), the RP-LC retention time came to 563 s.

On to `CCSc1nnc(NC(=O)CNC(=O)c2c[nH]c3ccccc23)s1`, for which the RP-LC retention time is 669 s.

The compound `CCC(=O)N1CCc2sc(C(=O)N3CCN(c4ccc(OC)cc4)CC3)cc2C1` registered an RP-LC retention time of 717 s.

For `CCn1c(=O)n(CC(=O)NCCN2CCCCC2C)c(=O)c2cnc(-c3ccc(Cl)cc3)nc21` (stereo not given), the RP-LC retention time was 751 s.

`CCN(C(=O)c1cc2c(=O)n(CC)c3ccccc3n2n1)c1ccc(F)cc1` had an RP-LC retention time of 945 s.

As for `O=C(c1cccs1)N1CC(C(=O)N2CCN(c3ccccc3Cl)CC2)C1`, the RP-LC retention time is 788 s.

Regarding `O=C(COc1ccc(F)cc1)NCC1(O)CCCC1`, the RP-LC retention time came out at 667 s.

`CCn1cnc2ccc(-c3noc(COc4ccccc4C)n3)cc21` registered an RP-LC retention time of 807 s.

`CC(=O)Nc1ccc(SCCCC(=O)N2CCc3ccccc32)nn1` returned an RP-LC retention time of 706 s.

As to `CCOC(=O)COc1ccccc1C1C(C(=O)OC)=C(C)NC2=C1C(=O)c1ccccc12` (stereo not given), the RP-LC retention time came to 957 s.

Consider `O=C(NCc1ccc(F)cc1)N1CCC(c2noc(-c3cnccn3)n2)C1` (stereo not given), for which the RP-LC retention time is 705 s.

Consider `COc1ccc(OC)c(NC(=O)c2cc3c(=O)n(CC(C)C)c4ccccc4n3n2)c1`, for which the RP-LC retention time was 1240 s.

As for `CCc1cccc(NC(=O)Cn2c(N3CCCC3)nc(C)cc2=O)c1`, the RP-LC retention time worked out at 682 s.

For `COc1ccc(Nc2nc(-c3nnn(-c4ccc(F)cc4F)c3C)ns2)cc1OC`, the RP-LC retention time is 900 s.

For the compound `COc1ccccc1NC(=O)N1C[C@@H](F)C[C@H]1C(=O)N1CCOCC1`, the RP-LC retention time came out at 625 s.

`COc1ccc(C(=O)N2CC(C(=O)NC3CC3)C(c3ccc(OC)cc3OC)C2)cc1` (stereo not given): the RP-LC retention time was 703 s.

Compound `COCCNC(=O)C1CN(C(=O)c2ccco2)CC1c1ccc(OC)cc1OC` (stereo not given) showed an RP-LC retention time of 922 s.

For `COc1ccc(Cl)cc1NC(=O)COc1nc(C)nc2ccccc12`, the RP-LC retention time stood at 840 s.

For the compound `O=C(Nc1ccc(F)cc1F)C1(CCO)CCN(Cc2ccccc2)C1` (stereo not given), the RP-LC retention time was 620 s.

Regarding `Cc1c(N2CCC(C(=O)NCC3CCCO3)CC2)c(=O)n(CC(C)C)c(=O)n1-c1ccccc1` (stereo not given), the RP-LC retention time worked out at 832 s.

With `CN1C(=O)C(C)(C)COc2cc(NC(=O)CCSc3ccccc3)ccc21`, the RP-LC retention time came out at 882 s.

`Cn1nc(-c2nnc(-c3ccccc3)o2)c2c1CCN(S(=O)(=O)c1cccc(C#N)c1)C2` came in with an RP-LC retention time of 884 s.

Regarding `COc1ccc(CC(=O)Nc2nnc(SCC(=O)NC3=NCCS3)s2)cc1`, the RP-LC retention time turned out to be 682 s.
